Assay results taken from patent US8686178B2, “Derivative of 18β-glycyrrhetinic acid apt to suppress cancer cells” (Kaohsiung Medical University, priority 2011, dated 2014).

Experiments:
[1] = tested on: human prostate cancer cell line PC3; assay: Trial (B): MTT cytotoxicity assay, 72 hours; assay type: cell-based; conditions: 0-50 μM
From the text: (§1) For the sake of proving therapeutic effects of the derivatives of 18β-glycyrrhetinic acid of the present invention, including 10, 11, 13-17 and 21-25, in treating of cancer, human bladder cancer cell line NTUB1, human prostate cancer cell line PC3 cataloged as CRL-1435 (reference to J. Formosan Med. Assoc. 1992; 91:608-13), and immortalized normal human urothelial cells SV-HUC1 cataloged as CRL-9520 are purchased from American Type Culture Collection (ATCC; Rockville, USA) and maintained in a culturing medium respectively till at a preferable density to carry out a serial of trials (comprising trial A to G) for evaluating cytotoxicities of the derivatives of 18β-glycyrrhetinic acid against cancer cells, and mechanisms thereof. […]
(§2) In trial (B), the cell lines of NTUB1, PC3, and SV-HUC1 are prepared in 96-well plates and co-incubated with the compounds 21, 23 or 25 in various concentrations of 0, 0.3, 1, 3, 5, 10, 30 and 50 μM, to analyze cytotoxic effects against either cancer cell or normal cells via a modified 3-[4,5-dimethylthiazol-2-yl]-2,5-diphenyltetrazolium bromide (MTT, Sigma Chemical Co.) assay. […] At co-incubation, 50 μL of MTT (2 mg/mL in PB) is added to each well to react for 3 hours, followed by centrifugating the 96-well plates at 1000 g for 10 min to remove supernatant, adding 150 μL DMSO in each well of the 96-well plates, and determining viability rates of the NTUB1, PC3, and SV-HUC1 cells separately by an absorbance spectrometry at 540 nm with a MRX (DYNEXCO) microplate reader.

NTUB1 = assay: Trial (B): MTT cytotoxicity assay, 72 hours; assay type: cell-based, human; conditions: 0-50 μM
From the text: as §1, §2

NTUB1 cells = assay: Trial (D): production of reactive oxygen species by flow cytometry (DCF); assay type: cell-based, human; conditions: 24 hours
Protocol: In trial (D), production of reactive oxygen species (ROS) is analyzed by flow cytometry, since the levels of ROS play an important role in apoptosis.
Referring to TABLE 4, the NTUB1 cells at a density of 8×10^5 cells/ml are prepared and assigned into 5 groups, including D1 to D5, to incubate in various medium for 24 hours. Next, 10 μM of 2,7-dichlorodihydrofluorescein diacetate (H2DCFHDA; Molecular Probes, Eugene, Oreg.) is added to the NTUB1 cells of each group 30 minutes prior than harvest, followed by collecting the NTUB1 cells of each group respectively and washing with PBS buffer. With such arrangement, the 2,7-dichlorodihydrofluorescein diacetate will penetrate into cells, interact with esterase, and degrade to 2,7-dichlorofluorescein (DCF) having green fluorescein, which can be determined by flow cytometer. In trial (D), green fluorescence of intracellular DCF in each group are analyzed immediately by FACScan flow cytometer (Becton Dickinson) at a wavelength of 525 nm.

p-p53 (Ser15) = assay: Trial (G): expression of p53 / p-p53 by Western blot; assay type: cell-based, human; conditions: 10, 25, 50 μM, 24 hours, NTUB1
Protocol: In trial (G), expression of p53 is monitored via Western blot analysis in accordance with a journal article published by Son et al., at 2010 in Toxicol. Appl. Pharmacol., in which overproduction ROS induced p53 suppression is observed.
Referring to TABLE 7, the NTUB1 cells at a density of 8×10^5 cells/ml are prepared and assigned into 9 groups, including G1-1 to G1-5 and G2-1 to G2-4, to incubate in various medium for 24 hours, followed by harvesting in trypsinization, resuspending in PBS till at a suitable density and collecting the NTUB1 cells of each group respectively.
Next, the NTUB1 cells of each group are further diluted with equal volume of 2× sample buffer, boiled for 10 minutes twice to denature protein therein, and analyzed by SDS-PAGE. After that, proteins on SDS-PAGE datum are transferred to nitrocellulose membranes (Millipore, Billerica, Mass., USA) using a semi-dry blotter, followed by blocking with 5% (w/v) skimmed milk in TBST buffer (100 mM Tris-HCl (pH 7.5), 150 mM NaCl and 0.1% Tween-20), incubating with specific antibodies [including antibodies specific for b-acctin (NB600-501), p-p53 (Ser15) (9284) and p53 (DO1)]. at 4° C. overnight, washing with TBST buffer again and incubated with secondary antibody at room temperature. Finally, western data of each group are visualized on Fuji SuperRX film. […]

## C=C(C)[C@@H]1CC[C@]2(C)[C@H](C(=O)C=C3[C@@H]4C[C@@](C)(C(=O)NC(C)C)CC[C@]4(C)CC[C@]32C)[C@@]1(C)CCC(=O)NC(C)C [Compound 25, 3,4-seco-11-oxo-18β-olean-4(23),12-dien-3,30-diisopropyl carbamate]
[1]
  cytotoxic effect (survival ratio, FIGS. 4-6): cytotoxic effects against to the cancer cells in a dose-dependent manner
NTUB1
  cytotoxic effect (survival ratio, FIGS. 4-6): cytotoxic effects against to the cancer cells in a dose-dependent manner, particularly in against to NTUB1 cell
NTUB1 cells; 10 μM
  ROS (%): 66.1%
NTUB1 cells; 25 μM
  ROS (%): 85.6%
p-p53 (Ser15)
  levels of p-p53 (Western blot, FIGS. 9, 10): increase levels of p-p53 in a dose-dependent manner
